Experimental data taken from patent US20260265267A1, “NOVEL COMPOUNDS WITH MTORC2-INHIBITORY ACTIVITY AND USES THEREOF” (Aliad Biopharma, priority 2023, published 2026).

Key:
mTORC2 [1] = molecular target: T1, mTORC2 (Homo sapiens, UniProt P42345); assay: mTORC2 inhibitory activity in HeLa cells (Akt Ser473 phosphorylation, Western blot); type: cell-based; conditions: for remaining activity at 40 µM: read-out: pSer473-AKT/AKT (% control); for inhibition at 40 µM: HeLa, 9 h, read-out: reduction in Akt Ser473 phosphorylation compared to the control group
T1 construct: the following experiments were conducted in HeLa cells; endogenous in cells; host or cells: HeLa
Protocol: (§1) Specifically, HeLa cells were cultured in a 5% CO2 incubator at 37° C. in DMEM (Dulbecco's Modified Eagles Media) medium supplemented with 10% FBS, penicillin (100 unit/ml), and streptomycin (100 μg/ml). Cultivation was started by seeding 4×10^5 cells in a 100 mm culture dish, and subculture was carried out every 3 days.
(§2) Human cell line HeLa cells were seeded in a 60 mm culture dish at a density of 2×10^5 cells/plate, and cultured for 24 hours. Then, HeLa cells were treated with 70 types of compounds at a concentration of 40 μM each for 9 hours. HeLa cells were washed twice with cold 1×PBS, and then lysed with 100 μl of RIPA buffer (50 mM Tris-HCl (pH7.4), 0.25% sodium deoxycholate, 50 mM NaF, 1% NP-40, 150 mM NaCl, 1 mM β-glycerophosphate, 1 mM PMSF, 1 mM NaVO4, 1 μg/ml leupeptin, 1 μg/ml pepstatin A, 10 nM calyculin A, 10 μg/ml aprotinin, 1 mM EDTA) to hemolyze the cell membrane. Then, the lysates were centrifuged at 12,000 rpm at 4° C. for 10 minutes to collect the supernatant, which is cell lysate. Protein concentration in the cell lysate was determined using the BCA protein assay kit (Thermo Fisher Scientific), and equal amounts of protein were separated by SDS-PAGE.
(§3) Western blot analysis was performed by the following method. […] After washing the membrane three times for 5 minutes each with TBS-T buffer, it was incubated with primary antibodies diluted in TBS-T buffer containing 5% skim milk or 5% BSA overnight at 4° C. Subsequently, the membrane was washed three times for 5 minutes each with TBS-T buffer, and then incubated with secondary antibodies diluted in TBS-T buffer containing 5% skim milk at room temperature for 30 minutes. The membrane was washed five times for 5 minutes each with TBS-T buffer containing 5% skim milk, and then the protein bands bound by the secondary antibody were detected using a chemiluminescence method. The primary antibodies used were Akt (cell signaling, #4691), pAkt(S473) (Cell signaling, #4060), p70S6K (Cell signaling, #S6198), pp70S6K(T389) (cell signaling, #9205S), LC3-II (MBL, #PM036), and the secondary antibodies used were HRP conjugated anti-rabbit (Jackson immunoresearch laboratory, #711-035-152) and HRP conjugated anti-mouse IgG (Jackson immunoresearch laboratory, #515-035-072).
As an mTORC2 activity indicator in HeLa cells, the level of Akt Ser473 phosphorylation was selected as a marker, and the phosphor-Akt (Ser473) signal obtained from Western blot analysis was normalized to the pan-Akt signal, and the data were expressed as a percentage relative to the control group treated with DMSO only, which is a vehicle.

mTORC1 [2] = molecular target: T2, mTORC1 (Homo sapiens, UniProt P42345); assay: mTORC1 inhibitory activity in HeLa cells (p70S6K Thr389 phosphorylation, Western blot); type: cell-based; conditions: for remaining activity at 40 µM: 9 hours, read-out: pThr389-S6K/S6K (% control)
T2 construct: the following experiments were conducted in HeLa cells; endogenous in cells; host or cells: HeLa
Protocol: as §1, §2, §3
As an mTORC1 activity indicator in HeLa cells, the level of p70S6K Thr389 phosphorylation was selected as a marker, and the level of phosphor-p70S6K (Thr389) signal measured by Western blot analysis was normalized to a level of pan-p70S6K signal, and then expressed as a percentage of the control group treated with only DMSO, which is a vehicle.

LC3-II [3] = assay: LC3-II formation as indicator of autophagy in HeLa cells (Western blot); type: cell-based, human; conditions: 9 hours; for activity at 40 µM: Homo sapiens, read-out: LC3-II (% control)
Protocol: as §1, §2, §3
LC3-II formation was selected as an indicator of autophagy in HeLa cells, and the LC3-II signal obtained from Western blot analysis was normalized to the pan-Akt signal and the data were expressed as a percentage relative to the control group treated with DMSO only, which is a vehicle.

[4] = molecular target: T3, mTOR(CD) protein and mLST8 protein (Homo sapiens, UniProt P42345+Q9BVC4); assay: mTOR(CD)-mLST8 binding assay (co-precipitation, Western blot); conditions: 0.04 to 40 μM
T3 construct: mTOR C-terminal domain (mTOR(CD), a.a. 2179-2549); made in house; host or cells: E. coli (mTOR(CD)); insect Sf9 cells (mLST8, used as a crude extract)
Protocol: mLST8 binds to the mTOR C-terminal domain (mTOR(CD), a.a. 2179-2549). After binding to mTOR, mLST8 interacts with mSin1 and Rictor to complete the formation of the mTORC2 complex, serving as a scaffold. In order to evaluate the inhibitory activity of the compounds synthesized in Examples 1 to 70 on the binding between mLST8 protein and mTOR(CD) protein, the following mTOR(CD)-mLST8 binding assay was performed. Four types of compounds: HN2210, HN2213, HN2221 and HN2313 were used as the experimental target compounds.
Specifically, mTOR(CD) protein was overexpressed in E. coli, labeled with biotin, and then partially purified. mLST8 protein was overexpressed in insect Sf9 cells to obtain mLST8 extract. mTOR(CD)-biotin and mLST8 extract were incubated at 4° C. to induce binding between mTOR(CD)-biotin and mLST8 proteins, and then the mTOR(CD)-biotin and mLST8 complex were co-precipitated using avidin-agarose beads. The relative amounts of precipitated mTOR(CD)-biotin and mLST8 proteins were measured by Western blot analysis, as shown in FIG. 4. Four types of compounds were added during the incubation process of the mTOR(CD)-biotin and mLST8 extract.

mTORC2 [5] = assay: mTORC2 inhibitory activity in primary cultured cerebral neurons (Akt Ser473 phosphorylation); type: cell-based, SD mice
Protocol: Specifically, primary neural cells were cultured from the cerebral cortex of E16 embryos of SD mice with a gestational age 16-day (Orient Bio). The extracted brain was separated into the left and right hemispheres, the meninges were removed, and the brains were treated with trypsin in Ca^2+/Mg^2+-free HBSS solution.
The time-dependent changes in Akt Ser473 phosphorylation, Akt Thr308 phosphorylation, and LC3-II levels were measured by Western blot analysis.

mTORC1 [6] = assay: mTORC1 inhibitory activity in primary cultured cerebral neurons (S6K Thr389 phosphorylation); type: cell-based, SD mice
LC3-II [7] = assay: LC3-II levels in primary cultured cerebral neurons; type: cell-based, SD mice
Protocol: Specifically, primary neural cells were cultured from the cerebral cortex of E16 embryos of SD […] with a gestational age 16-day (Orient Bio). The extracted brain was separated into the left and right hemispheres, the meninges were removed, and the brains were treated with trypsin in Ca^2+/Mg^2+-free HBSS solution. […] The cells were seeded at a density of 19,000 cells/cm^2 onto 35 mm culture dishes coated with 50 μg/ml poly-D-Lysine (Sigma, P0899) and 1 μg/ml laminin (Invitrogen, 23017-015), and then maintained in neurobasal complete media supplemented with B27 (Gibco, 17504-044) in a 5% CO2 incubator.
Therefore, the evaluation of mTORC2 inhibitory activity in primary cultured cerebral cells was conducted using the same method as in Experimental Example 1, except that each compound was treated at concentrations of 500 nM or 100 nM for 24 hours. The time-dependent changes in Akt Ser473 phosphorylation, Akt Thr308 phosphorylation, and LC3-II levels were measured by Western blot analysis.

| SMILES | selective inhibition of mTORC2 (mTORC2 [1]; 40 μM, 9 hours, versus mTORC1) | remaining activity at 40 µM (mTORC2 [1]; 9 hours) [%] | inhibition at 40 µM (mTORC2 [1]) [%] | remaining activity at 40 µM (mTORC1 [2]) [%] | activity at 40 µM (LC3-II [3]) [%] | inhibition of the binding between mTOR(CD) and mLST8 proteins [4] | inhibition at 40 µM (mTORC1 [2]; HeLa, 9 h, read-out: reduction in p70S6K Thr389 phosphorylation compared to the control group) [%] | increase in LC3-II (LC3-II [3]; 40 μM) [%] | selectivity for mTORC2 over mTORC1 (mTORC2 [5]) | pSer473-AKT/AKT (% control) (mTORC2 [5]; 100 nM, 24 hours) | effect on Akt Ser473 phosphorylation (mTORC2 [5]; 500 nM or 100 nM, 24 hours) | decrease in AKT Ser473 phosphorylation at 24 hours (mTORC2 [5]; 500 nM or 100 nM, at 24 hours) [%] | AKT Ser473 phosphorylation from 1 to 12 hours (mTORC2 [5]; from 1 to 12 hours) | pThr389-S6K/S6K (% control) (mTORC1 [6]; 100 nM, 24 hours) | effect on S6K Thr389 phosphorylation (mTORC1 [6]; 500 nM or 100 nM, time course to 24 hours (HN2304: from 6 to 24 hours)) | LC3-II (% control) (LC3-II [7]; 100 nM, 24 hours) | effect on LC3-II (LC3-II [7]; 500 nM or 100 nM, time course to 24 hours) |
| --- | --- | --- | --- | --- | --- | --- | --- | --- | --- | --- | --- | --- | --- | --- | --- | --- | --- |
| O=C1c2cc(F)c(NC3CCCCC3)cc2COc2cc3c(cc21)OCO3 [HN2221, 8-(cyclohexylamino)-9-fluoro[2]benzoxepino[3,4-f]-1,3-benzodioxol-11(6H)-one] | selectively inhibit mTORC2 | 77 | > 20 | 93 | 119 | did not significantly inhibit | – | – | – | – | – | – | – | – | – | – | – |
| COc1ccccc1CNc1cc2c(cc1F)C(=O)c1cc3c(cc1OC2)OCO3 [HN2323, 9-fluoro-8-((2-methoxybenzyl)amino)-[1,3]dioxolo[4′,5′:4,5]benzo[1,2-b]benzo[e]oxepin-11(6H)-one] | – | 72 | > 20 | 60 | 180 | – | 40 | 80 | selective mTORC2 inhibitors | 48 | reduce Akt Ser473 phosphorylation | 52 | increased AKT Ser473 phosphorylation significantly | 128 | no effect | 135 | no effect |
